Experimental data from the NIST ThermoML archive (doi:10.1016/j.jct.2013.09.039).

Conditions: Liquid, Vibrating tube method

Cc1ccc(C)cc1 [1,4-dimethylbenzene]
mass density [kg/m3]
Conditions | 100 kPa | 5000 kPa | 10000 kPa | 20000 kPa | 30000 kPa | 40000 kPa
288.15 K | 864.9 | 868.3 | 871.8 | 878.1 | 884 | 889.7
298.15 K | 856.2 | 860.2 | 863.5 | 870.1 | 876.5 | 882.2
308.15 K | 847.5 | 851.4 | 855.2 | 862.1 | 868.6 | 874.8
